From patent publication US8273754B2, “Substituted 1H-pyrazolo[3,4-D]pyrimidine-6-amine compounds” (ArQule, Inc., priority 2008, dated 2012)
Where two headings read alike, the source gives them in different places.

Tested on: cancer cells
Test: MTS cell growth inhibition assay (72 hours)
Type: cell-based
How it was run: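 Cells in DMEM with 1% FBS, seeded 18 h, then compound-treated 72 h at 37 °C. Viability by MTS/PMS for 4 h, formazan absorbance at 492 nm; IC50 taken as concentration giving 50% absorbance drop, activity banded by percent inhibition.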

[1] = Homo sapiens, DLD-1, 72 h, DLD-1 cells, read-out: DLD-1 MTS 72 hr at 10 μM
[2] = Homo sapiens, KATO III, 72 h, KATO III cells, read-out: KATO III MTS 72 hr at 10 μM
[3] = Homo sapiens, MDA-MB-231, 72 h, MDA-MB-231 cells, read-out: MDA-MB-231 MTS 72 hr at 10 μM
[4] = Homo sapiens, NCI-H1299, 72 h, NCI-H1299 cells, read-out: NCI-H1299 MTS 72 hr at 10 μM
[5] = PaCa-2, 72 h, PACA-2 cells, read-out: PACA-2 MTS 72 hr at 10 μM

Compound	inhibition at 10 µM [1] [%]	inhibition at 10 µM [2] [%]	inhibition at 10 µM [3] [%]	inhibition at 10 µM [4] [%]	inhibition at 10 µM [5] [%]
Nc1nc(NC2Cc3ccccc3N(C(=O)C(=O)c3c[nH]c4ccccc34)C2)c2cn[nH]c2n1 (centres unmarked) [Compound 83, 1-(3-(6-amino-1H-pyrazolo[3,4-d]pyrimidin-4-ylamino)-3,4-dihydroquinolin-1(2H)-yl)-2-(1H-indol-3-yl)ethane-1,2-dione]	< 50	< 50	< 50	< 50	< 50
CS(=O)(=O)N1CC(Nc2nc(N)nc3[nH]ncc23)Cc2ccccc21 (centres unmarked) [Compound 29, N4-(1-(methylsulfonyl)-1,2,3,4-tetrahydroquinolin-3-yl)-1H-pyrazolo[3,4-d]pyrimidine-4,6-diamine]	< 50	< 50	< 50	< 50	< 50
Nc1nc(NC2Cc3ccccc3N(C(=O)Cc3cccc4ccccc34)C2)c2cn[nH]c2n1 (centres unmarked) [Compound 98, 1-(3-(6-amino-1H-pyrazolo[3,4-d]pyrimidin-4-ylamino)-3,4-dihydroquinolin-1(2H)-yl)-2-(naphthalen-1-yl)ethanone]	< 50	< 50	< 50	< 50	< 50
Nc1nc(NC2Cc3ccccc3N(S(=O)(=O)c3ccc(C(F)(F)F)cc3Cl)C2)c2cn[nH]c2n1 (centres unmarked) [Compound 74, N4-(1-(2-chloro-4-(trifluoromethyl)phenylsulfonyl)-1,2,3,4-tetrahydroquinolin-3-yl)-1H-pyrazolo[3,4-d]pyrimidine-4,6-diamine]	< 50	< 50	< 50	< 50	< 50
Cn1cnc(S(=O)(=O)N2CC(Nc3nc(N)nc4[nH]ncc34)Cc3ccccc32)c1 (centres unmarked) [Compound 38, N4-(1-(1-methyl-1H-imidazol-4-ylsulfonyl)-1,2,3,4-tetrahydroquinolin-3-yl)-1H-pyrazolo[3,4-d]pyrimidine-4,6-diamine]	< 50	< 50	< 50	< 50	< 50
CCCCCCc1ccc(C(=O)N2CC(Nc3nc(N)nc4[nH]ncc34)Cc3ccccc32)cc1 (centres unmarked) [Compound 88, (3-(6-amino-1H-pyrazolo[3,4-d]pyrimidin-4-ylamino)-3,4-dihydroquinolin-1(2H)-yl)(4-hexylphenyl)methanone]	50 to 79	< 50	< 50	< 50	< 50
Nc1nc(NC2Cc3ccccc3N(S(=O)(=O)c3ccc4c(c3)OCCO4)C2)c2cn[nH]c2n1 (centres unmarked) [Compound 76, N4-(1-(2,3-dihydrobenzo[b][1,4]dioxin-6-ylsulfonyl)-1,2,3,4-tetrahydroquinolin-3-yl)-1H-pyrazolo[3,4-d]pyrimidine-4,6-diamine]	< 50	< 50	< 50	< 50	50 to 79
N#Cc1cc(CN2CC(Nc3nc(N)nc4[nH]ncc34)Cc3ccccc32)ccc1F (centres unmarked) [Compound 138, 5-({3-[(6-amino-1H-pyrazolo[3,4-d]pyrimidin-4-yl)amino]-3,4-dihydroquinolin-1(2H)-yl}methyl)-2-fluorobenzonitrile]	< 50	< 50	< 50	< 50	< 50
Nc1nc(NC2Cc3ccccc3N(S(=O)(=O)c3cccc(NC(=O)Nc4ccccc4)c3)C2)c2cn[nH]c2n1 (centres unmarked) [Compound 200, 1-[3-({3-[(6-amino-1H-pyrazolo[3,4-d]pyrimidin-4-yl)amino]-3,4-dihydroquinolin-1(2H)-yl}sulfonyl)phenyl]-3-phenylurea]	< 50	< 50	< 50	< 50	< 50
Nc1nc(NC2Cc3ccccc3N(S(=O)(=O)c3ccc(Cl)cc3)C2)c2cn[nH]c2n1 (centres unmarked) [Compound 35, N4-(1-(4-chlorophenylsulfonyl)-1,2,3,4-tetrahydroquinolin-3-yl)-1H-pyrazolo[3,4-d]pyrimidine-4,6-diamine]	< 50	< 50	< 50	< 50	< 50
Cc1ccccc1CNC(=O)N1CC(Nc2nc(N)nc3[nH]ncc23)Cc2ccccc21 (centres unmarked) [Compound 111, 3-(6-amino-1H-pyrazolo[3,4-d]pyrimidin-4-ylamino)-N-(2-methylbenzyl)-3,4-dihydroquinoline-1(2H)-carboxamide]	< 50	< 50	< 50	< 50	< 50
COc1ccc(-n2ncc(CN3CC(Nc4nc(N)nc5[nH]ncc45)Cc4ccccc43)c2C)cc1 (centres unmarked) [Compound 157, N4-(1-{[1-(4-methoxyphenyl)-5-methyl-1H-pyrazol-4-yl]methyl}-1,2,3,4-tetrahydroquinolin-3-yl)-1H-pyrazolo[3,4-d]pyrimidine-4,6-diamine]	< 50	50 to 79	< 50	< 50	< 50
Nc1nc(NC2Cc3ccccc3N(S(=O)(=O)c3cccc(NC(=O)Nc4ccc5c(c4)CCC5)c3)C2)c2cn[nH]c2n1 (centres unmarked) [Compound 214, 1-[3-({3-[(6-amino-1H-pyrazolo[3,4-d]pyrimidin-4-yl)amino]-3,4-dihydroquinolin-1(2H)-yl}sulfonyl)phenyl]-3-(2,3-dihydro-1H-inden-5-yl)urea]	> 79	> 79	> 79	50 to 79	> 79
Nc1nc(NC2Cc3ccccc3N(S(=O)(=O)c3cccc(NC(=O)Nc4cccc(Cl)c4Cl)c3)C2)c2cn[nH]c2n1 (centres unmarked) [Compound 211, 1-[3-({3-[(6-amino-1H-pyrazolo[3,4-d]pyrimidin-4-yl)amino]-3,4-dihydroquinolin-1(2H)-yl}sulfonyl)phenyl]-3-(2,3-dichlorophenyl)urea]	> 79	> 79	> 79	> 79	> 79
CCC(C)(C)c1ccc(S(=O)(=O)N2CC(Nc3nc(N)nc4[nH]ncc34)Cc3ccccc32)cc1 (centres unmarked) [Compound 61, N4-(1-(4-tert-pentylphenylsulfonyl)-1,2,3,4-tetrahydroquinolin-3-yl)-1H-pyrazolo[3,4-d]pyrimidine-4,6-diamine]	< 50	< 50	< 50	< 50	< 50
Nc1nc(NC2Cc3ccccc3N(S(=O)(=O)c3cccc(NC(=O)Nc4ccc(Cl)c(C(F)(F)F)c4)c3)C2)c2cn[nH]c2n1 (centres unmarked) [Compound 223, 1-(3-(3-(6-amino-1H-pyrazolo[3,4-d]pyrimidin-4-ylamino)-3,4-dihydroquinolin-1(2H)-ylsulfonyl)phenyl)-3-(4-chloro-3-(trifluromethyl)phenyl)urea]	> 79	> 79	> 79	> 79	> 79
